Measured values published in article PMC7382296, “Discovery of potent thrombin inhibitors from a protease-focused DNA-encoded chemical library” (Proceedings of the National Academy of Sciences of the …, 2020).

Biological target: T1, thrombin (Homo sapiens, UniProt P00734)
T1 construct: gene F2
Test: thrombin inhibition dose-response, apparent Ki
Assay type: biochemical

CNC(=O)[C@@H]1CN(C(=O)[C@H](Cc2ccccc2CNC(=N)N)NC(=O)N(C)C2CCOc3ccccc32)C[C@H]1c1ccc(OC)cc1 (stereo partly shown) [compound 5] showed a Ki of 1 nM.
